# Assay: Radiolysis / stability of [18F]DCFPyL over time by HPLC with radiodetection (RCP, free 18F, radioactive impurities)
# Format: physicochemical
# Settings: for RT 4.8 radioactive impurity: MPA = 0.25% of main peak; for RCP: T = 10 hour; for 18F-DCFPyL / Free 18F: forced radiolysis in ethanol, 364.5 mCi/mL; for RT 5.0 min / RT 5.9 min / RT 12.0 min / RT 12.2 min: radioactive impurity
# Method: Those of ordinary skill in the art will be aware of techniques and systems for determining the radiochemical purity of a composition. In some cases, the radiochemical purity is determined using an HPLC associated with a radio-detector. Generally, the radiochemical purity is determined under ambient conditions (e.g., ambient temperature, ambient humidity, ambient light, etc.), such as in samples stored under such conditions.
# Stability was assessed using reverse phase HPLC on a C18 column with a phosphate buffer/acetonitrile gradient mobile phase, and the elution profile was monitored using both UV and radiochemical detectors. Samples were analyzed either by direct injection onto the HPLC, dilution and injection or including the addition of tetraethylammonium fluoride (TEAF) into the sample before injection.
# Known amounts of free ^18F either alone or spiked with TEAF were injected onto the analytic column and the eluent from the column collected over the course of a chromatogram and assaying the radioactivity using a Capintec. […] Adding TEAF into the analytic samples was incorporated into subsequent studies examining potential radiolysis of [^18F]DCFPyL to overcome some of the limitations of free ^18F quantification.
# Analytical HPLC method was used. The method employs UV detection at 264 nm for chemical impurities, and an Eckert & Ziegler model B-FC-1000 gamma detector for radiochemical assays.
# [1] = T = 6 hr, 5 mg/mL ascorbic acid pH 5.8, 20% ethanol, 99.0 mCi/mL at EOS
# [2] = T = 6 hr, 50 mg/mL ascorbic acid pH 5.8, 20% ethanol, 139.7 mCi/mL at EOS
# [3] = T = 6 hr, 100% ethanol, 325 mCi/mL at EOS
# [4] = T = 7 hr, 100% ethanol, 325 mCi/mL at EOS
# [5] = T = 8 hr, 100% ethanol, 325 mCi/mL at EOS
# [6] = T = 9 hr, 100% ethanol, 325 mCi/mL at EOS
# [7] = T = 10 hr, +TEAF added to sample before HPLC, 100% ethanol, 325 mCi/mL at EOS
# [8] = T = 10 hr, 1 mg/mL ascorbic acid pH 5.8, 20% ethanol, 107.0 mCi/mL at EOS
# [9] = T = 10 hr, 5 mg/mL ascorbic acid pH 5.8, 20% ethanol, 99.0 mCi/mL at EOS
# [10] = T = 10 hr, 50 mg/mL ascorbic acid pH 5.8, 20% ethanol, 139.7 mCi/mL at EOS
# [11] = T = 10 h, TEAF added (44 mg/mL) to sharpen the 18F peak
# [12] = 147 mCi/mL in 0.9% Sodium Chloride, USP, T = 0 h
# [13] = 147 mCi/mL in 0.9% Sodium Chloride, USP, T = 0.5 h
# [14] = 147 mCi/mL in 0.9% Sodium Chloride, USP, T = 1.0 h
# [15] = 147 mCi/mL in 0.9% Sodium Chloride, USP, T = 1.5 h
# [16] = 147 mCi/mL in 0.9% Sodium Chloride, USP, T = 2.0 h
# [17] = 147 mCi/mL in 0.9% Sodium Chloride, USP, T = 2.5 h
# [18] = 147 mCi/mL in 0.9% Sodium Chloride, USP, T = 3.0 h
# [19] = 147 mCi/mL in 0.9% Sodium Chloride, USP, T = 3.5 h
# [20] = 147 mCi/mL in 0.9% Sodium Chloride, USP, T = 4.0 h
# [21] = 256 mCi/mL in ethanol, T = 1.0 h
# [22] = 256 mCi/mL in ethanol, T = 1.5 h
# [23] = 256 mCi/mL in ethanol, T = 2.0 h
# [24] = 256 mCi/mL in ethanol, T = 2.5 h
# [25] = 256 mCi/mL in ethanol, T = 3.0 h
# [26] = 256 mCi/mL in ethanol, T = 3.5 h
# [27] = 256 mCi/mL in ethanol, T = 4.0 h
smiles,measurement,setting,value
"O=C(O)CC[C@H](NC(=O)N[C@@H](CCCCNC(=O)c1ccc([18F])nc1)C(=O)O)C(=O)O [Lot 18F-DCFPyL, 2-(3-{1-carboxy-5-[(6-[18F]fluoro-pyridine-3-carbonyl)-amino]-pentyl}ureido)-pentanedioic acid]",Free F-18,"T = 6 hr, 1 mg/mL ascorbic acid pH 5.8, 20% ethanol, 107.0 mCi/mL at EOS",1.57%
same,Free F-18,"T = 6 hr, 1 mg/mL sodium ascorbate, 20% ethanol, 111.5 mCi/mL at EOS",2.81%
same,18F-DCFPyL (% RCP),[1],99.09%
same,Free F-18,[1],0.91%
same,Free F-18,"T = 6 hr, 5 mg/mL sodium ascorbate, 20% ethanol, 114.6 mCi/mL at EOS",1.45%
same,18F-DCFPyL (% RCP),[2],99.64%
same,Free F-18,[2],0.36%
same,RT 4.8 radioactive impurity,[2],<MPA
same,18F-DCFPyL (RCP),[3],96.73%
same,Free F-18,[3],4.27%
same,18F-DCFPyL (RCP),[4],96.42%
same,Free F-18,[4],4.58%
same,18F-DCFPyL (RCP),[5],95.76%
same,Free F-18,[5],4.24%
same,18F-DCFPyL (RCP),[6],95.31%
same,Free F-18,[6],4.69%
same,RCP,"120 mCi/mL, ascorbic acid 5.6 mg/mL pH 6.0",96.9%
same,RCP,"127 mCi/mL, ascorbic acid 2.8 mg/mL pH 6.0",96.1%
same,RCP,"166 mCi/mL, ascorbic acid 5.6 mg/mL pH 6.0",95.5%
same,18F-DCFPyL (RCP),[7],92.7%
same,Free F-18,[7],7.35%
same,Free F-18,"T = 10 hr, +TEAF added to sample before HPLC, 100% ethanol, 325 mCi/mL at EOS, listed as 18F DCFPyL",7.4%
same,Free F-18,"T = 10 hr, no TEAF, 100% ethanol, 325 mCi/mL at EOS",4.55%
same,Free F-18,"T = 10 hr, no TEAF, 100% ethanol, 325 mCi/mL at EOS, listed as 18F DCFPyL",4.6%
same,Free F-18,"T = 10 hr, 0.5 mg/mL ascorbic acid pH 5.8, 20% ethanol, 105.8 mCi/mL at EOS",1.42%
same,18F-DCFPyL (% RCP),[8],98.36%
same,Free F-18,[8],1.64%
same,Free F-18,"T = 10 hr, 1 mg/mL sodium ascorbate, 20% ethanol, 111.5 mCi/mL at EOS",2.74%
same,18F-DCFPyL (% RCP),[9],99.05%
same,Free F-18,[9],0.95%
same,Free F-18,"T = 10 hr, 5 mg/mL sodium ascorbate, 20% ethanol, 114.6 mCi/mL at EOS",1.51%
same,18F-DCFPyL (% RCP),[10],99.34%
same,Free F-18,[10],0.30%
same,RT 4.8 radioactive impurity,[10],0.36%
same,18F-DCFPyL (RCP),"T = 10 hr, 100% ethanol, 325 mCi/mL at EOS",95.45%
same,18F-DCFPyL (RCP),"T = 10 hr, 100% ethanol, 325 mCi/mL at EOS, listed as 18F DCFPyL",95.5%
same,18F-DCFPyL,T = 0 h,98.37 area %
same,Free 18F,T = 0 h,1.63 area %
same,18F-DCFPyL,T = 1 h,96.66 area %
same,Free 18F,T = 1 h,3.34 area %
same,18F-DCFPyL,T = 2 h,96.38 area %
same,Free 18F,T = 2 h,3.62 area %
same,18F-DCFPyL,T = 3 h,95.71 area %
same,Free 18F,T = 3 h,4.29 area %
same,18F-DCFPyL,T = 4 h,95.60 area %
same,Free 18F,T = 4 h,4.40 area %
same,18F-DCFPyL,T = 5 h,95.58 area %
same,Free 18F,T = 5 h,4.42 area %
same,18F-DCFPyL,T = 6 h,95.73 area %
same,Free 18F,T = 6 h,4.27 area %
same,18F-DCFPyL,T = 7 h,95.42 area %
same,Free 18F,T = 7 h,4.58 area %
same,18F-DCFPyL,T = 8 h,95.76 area %
same,Free 18F,T = 8 h,4.24 area %
same,18F-DCFPyL,T = 9 h,95.31 area %
same,Free 18F,T = 9 h,4.69 area %
same,18F-DCFPyL,T = 10 h,95.45 area %
same,Free 18F,T = 10 h,4.55 area %
same,18F-DCFPyL,[11],92.65 area %
same,Free 18F,[11],7.35 area %
same,"two impurities eluting before the 18F-DCFPyL peak, upper end of range (<LLQ to ...)","over 4 hours, 110 mCi/mL lot, 50 mg/mL pH 5.8 ascorbic acid, 24% (w/w) ethanol",≤ 0.37%
same,"impurity eluting before the 18F-DCFPyL peak, upper end of range (<LLQ to ...)","over 4 hours, 256 mCi/mL lot, 100 mg/mL pH 2.0 ascorbic acid in collection vial",≤ 0.35%
same,RT 5.0 min,"110 mCi/mL in 50 mg/mL pH 5.8 ascorbic acid, T = 0 h",0.27 area %
same,RT 5.0 min,"110 mCi/mL in 50 mg/mL pH 5.8 ascorbic acid, T = 0.5 h",0.28 area %
same,RT 5.0 min,"110 mCi/mL in 50 mg/mL pH 5.8 ascorbic acid, T = 1.0 h",0.26 area %
same,RT 5.0 min,"110 mCi/mL in 50 mg/mL pH 5.8 ascorbic acid, T = 1.5 h",0.34 area %
same,RT 5.0 min,"110 mCi/mL in 50 mg/mL pH 5.8 ascorbic acid, T = 2.0 h",0.24 area %
same,RT 5.0 min,"110 mCi/mL in 50 mg/mL pH 5.8 ascorbic acid, T = 2.5 h",0.34 area %
same,RT 5.0 min,"110 mCi/mL in 50 mg/mL pH 5.8 ascorbic acid, T = 3.0 h",0.35 area %
same,RT 5.0 min,"110 mCi/mL in 50 mg/mL pH 5.8 ascorbic acid, T = 3.5 h",0.31 area %
same,RT 5.0 min,"110 mCi/mL in 50 mg/mL pH 5.8 ascorbic acid, T = 4.0 h",0.31 area %
same,RT 5.0 min,[12],0.50 area %
same,RT 5.9 min,[12],0.64 area %
same,RT 5.0 min,[13],0.65 area %
same,RT 5.9 min,[13],0.97 area %
same,RT 5.0 min,[14],0.48 area %
same,RT 5.9 min,[14],1.11 area %
same,RT 5.0 min,[15],0.61 area %
same,RT 5.9 min,[15],1.03 area %
same,RT 5.0 min,[16],0.77 area %
same,RT 5.9 min,[16],1.05 area %
same,RT 5.0 min,[17],0.62 area %
same,RT 5.9 min,[17],0.93 area %
same,RT 5.0 min,[18],0.70 area %
same,RT 5.9 min,[18],0.87 area %
same,RT 5.0 min,[19],0.59 area %
same,RT 5.9 min,[19],0.95 area %
same,RT 5.0 min,[20],0.71 area %
same,RT 5.9 min,[20],0.96 area %
same,RT 5.0 min,[21],0.35 area %
same,RT 12.0 min,[21],0.35 area %
same,RT 12.2 min,[21],0.31 area %
same,RT 5.0 min,[22],0.28 area %
same,RT 12.0 min,[22],0.46 area %
same,RT 12.2 min,[22],0.37 area %
same,RT 5.0 min,[23],0.50 area %
same,RT 12.0 min,[23],0.52 area %
same,RT 12.2 min,[23],0.47 area %
same,RT 12.0 min,[24],0.52 area %
same,RT 12.2 min,[24],0.46 area %
same,RT 12.0 min,[25],0.69 area %
same,RT 12.2 min,[25],0.57 area %
same,RT 12.0 min,[26],0.87 area %
same,RT 12.2 min,[26],0.75 area %
same,RT 12.0 min,[27],0.96 area %
same,RT 12.2 min,[27],0.69 area %

# — patent US20250019350A1, “SYNTHESIS OF THE PROSTATE SPECIFIC MEMBRANE ANTIGEN (PSMA) RADIOLABELED INHIBITOR [18F]DCFPYL” (Progenics Pharmaceuticals, Inc, priority 2023, published 2025)
